# Results taken from patent publication EP4585587A1, “PROPIONIC ACID DERIVATIVE AND USE THEREOF IN MEDICINE” (priority 2022, dated 2024).
# pIC50: −log10 of the molar value. Counter-ions that a name gives are not always drawn. Like-named read-outs stand apart in the source and are kept apart here.
# Columns and labels:
# integrin α4β7 = target: T1, integrin α4β7 (Homo sapiens, UniProt P13612+P26010); assay: Integrin α4β7 cell adhesion assay (RPMI8866 cells on MAdCAM-1); format: cell-based
# T1 sequence (P13612 34-1032): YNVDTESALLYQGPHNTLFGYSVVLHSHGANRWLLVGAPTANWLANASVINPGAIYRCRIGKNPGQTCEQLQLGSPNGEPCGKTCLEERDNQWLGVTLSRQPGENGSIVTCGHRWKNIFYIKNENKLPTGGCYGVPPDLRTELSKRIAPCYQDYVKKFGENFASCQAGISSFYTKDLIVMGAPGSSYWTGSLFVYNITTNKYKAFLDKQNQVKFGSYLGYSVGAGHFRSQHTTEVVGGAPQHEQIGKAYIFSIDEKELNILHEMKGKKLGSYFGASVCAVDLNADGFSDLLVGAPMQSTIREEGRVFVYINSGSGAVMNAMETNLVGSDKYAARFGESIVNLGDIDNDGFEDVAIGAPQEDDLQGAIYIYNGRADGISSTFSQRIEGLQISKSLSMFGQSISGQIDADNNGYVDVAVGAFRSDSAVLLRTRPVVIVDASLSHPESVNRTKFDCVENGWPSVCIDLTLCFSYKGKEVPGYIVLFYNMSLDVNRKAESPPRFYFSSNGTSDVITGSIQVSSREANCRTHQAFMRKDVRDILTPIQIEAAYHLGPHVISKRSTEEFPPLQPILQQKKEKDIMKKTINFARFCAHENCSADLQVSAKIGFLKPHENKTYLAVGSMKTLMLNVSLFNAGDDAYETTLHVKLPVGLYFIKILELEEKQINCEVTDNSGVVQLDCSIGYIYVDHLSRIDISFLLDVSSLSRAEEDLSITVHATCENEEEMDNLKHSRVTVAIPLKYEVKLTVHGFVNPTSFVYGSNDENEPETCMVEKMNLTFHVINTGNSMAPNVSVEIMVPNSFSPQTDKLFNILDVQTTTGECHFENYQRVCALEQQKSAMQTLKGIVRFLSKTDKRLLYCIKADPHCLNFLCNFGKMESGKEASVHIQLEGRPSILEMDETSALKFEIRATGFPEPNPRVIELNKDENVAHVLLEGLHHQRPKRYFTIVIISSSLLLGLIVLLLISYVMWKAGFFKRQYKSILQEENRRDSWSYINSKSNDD
# T1 sequence (P26010 20-798): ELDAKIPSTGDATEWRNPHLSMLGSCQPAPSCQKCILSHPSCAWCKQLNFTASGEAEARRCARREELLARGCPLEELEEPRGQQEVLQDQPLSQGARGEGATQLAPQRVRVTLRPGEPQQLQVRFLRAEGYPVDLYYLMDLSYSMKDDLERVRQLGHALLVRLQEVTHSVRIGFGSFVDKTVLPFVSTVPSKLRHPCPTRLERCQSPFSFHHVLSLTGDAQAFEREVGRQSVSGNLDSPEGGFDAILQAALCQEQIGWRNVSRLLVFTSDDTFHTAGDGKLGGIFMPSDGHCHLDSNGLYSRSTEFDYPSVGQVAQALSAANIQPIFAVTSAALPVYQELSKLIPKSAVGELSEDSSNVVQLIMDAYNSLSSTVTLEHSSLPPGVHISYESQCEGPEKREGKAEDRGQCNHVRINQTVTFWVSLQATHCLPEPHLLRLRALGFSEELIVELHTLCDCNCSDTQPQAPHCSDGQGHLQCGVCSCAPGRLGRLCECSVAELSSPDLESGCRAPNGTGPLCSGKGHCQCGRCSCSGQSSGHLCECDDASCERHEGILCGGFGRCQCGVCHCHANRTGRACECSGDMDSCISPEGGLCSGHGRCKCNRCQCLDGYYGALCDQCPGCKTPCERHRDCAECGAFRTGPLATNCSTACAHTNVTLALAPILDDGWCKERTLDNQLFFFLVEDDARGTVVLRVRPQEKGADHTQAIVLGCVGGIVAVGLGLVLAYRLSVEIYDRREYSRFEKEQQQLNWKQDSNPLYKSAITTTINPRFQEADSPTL
# Description: MAdCAM-1 was formulated with TBS buffer to a final concentration of 2 µg/ml, 50 µl of the solution was transferred to a 96-well plate, and the plate was coated with same at 4°C overnight. The plate was washed with TBS buffer three times, then 150 µl of a blocking solution (TBS buffer containing 1% BSA) was added, and the plate was blocked at 37°C for 1 h. […] 50 µl of the cell suspension was transferred to a 96-well plate so that the cell density reached 2×10^5 cells/well. Then 1 µl of the compound at different concentrations or DMSO was added and the plate was incubated at 37°C for 1 h or 2 h. The plate was washed with TBS buffer to remove non-adherent cells. 50 µl of a substrate (4-nitrophenyl-N-acetyl-β-D-glucosaminide) was added and the plate was incubated at 37°C for 2 h. […] The IC50 value was calculated using GraphPad Prism 6 software.
# integrin α4β1 = assay: Integrin α4β1-mediated cell adhesion assay (Jurkat cells on VCAM); format: cell-based
# Description: VCAM was formulated into a final concentration of 0.5 µg/ml with a coating buffer, 50 µl of the solution was transferred to a 96-well plate, and the plate was coated with same at 4°C overnight. The plate was washed with coating buffer three times, then 150 µl of a blocking solution (coating buffer containing 1% BSA) was added, and the plate was blocked at 37°C for 1 h. Jurkat cells were collected, washed twice using DPBS buffer, and then resuspended to 4 × 10^6 cells/ml with an action buffer. 50 µl of the cell suspension was transferred to a 96-well plate so that the cell density reached 2 × 10^5 cells/well. Then 1 µl of the test compound at different concentration or DMSO was added and the plate was incubated at 37°C for 1 h. The plate was washed with coating buffer to remove non-adherent cells. 50 µl of a substrate (4-nitrophenyl-N-acetyl-β-D-glucosaminide) was added and the plate was incubated at 37°C for 2 h. Finally, 90 µl of a termination solution (50 mM glycine and 5 mM EDTA, pH 10.4) was added. The OD value of the plate was read at 405 nm. • Coating buffer: DMEM+ 20 mM HEPES+ 0.4 mM MnCl2 • Action buffer: DMEM+ 20 mM HEPES+ 0.1% BSA+0.4 mM MnCl2 • DMEM: dulbecco's modified eagle medium; • HEPES: 2-[4-(2-hydroxyethyl)piperazin-1-yl]ethanesulfonic acid Table 1 Results of effects of compounds on α4β7- and α4β1-mediated cell adhesion
# [1] = RPMI8866 cells, MAdCAM-1 coated plate, reported as class symbol, read-out: RPMI-8866 (α4β7)/MadCAM-1 IC50
# [2] = selectivity ratio of Jurkat (α4β1)/VCAM-1 IC50 to RPMI-8866 (α4β7)/MadCAM-1 IC50
# [3] = Jurkat cells, VCAM coated plate; read-out: Jurkat (α4β1)/VCAM-1 IC50
# [4] = RPMI8866 cells, MAdCAM-1 coated plate, numeric value or bound, read-out: RPMI-8866 (α4β7)/MadCAM-1 IC50
SMILES,pIC50 (integrin α4β7; [1]),pIC50 (integrin α4β1; [3]),α4β1/α4β7 (integrin α4β1; [2]),other results
"CC#Cc1cc(-c2c(C)cccc2C)c(F)c(C(CC(=O)O)NC(=O)C(CC(C)C)n2cc(CCN(C)CC3CC3(F)F)c(C(F)(F)F)cc2=O)c1F (single isomer, unassigned) [Compound 7-2]",> 8.00,< 6.30,182,
"COc1cc(C)c(-c2c(F)c(C(CC(=O)O)NC(=O)C(CC(C)C)n3cc(CCN(C)C)c(C(F)(F)F)cc3=O)c(F)c3c2CCC3)c(C)c1 (single isomer, unassigned) [Compound 39-2]",,,213,"pIC50 (integrin α4β7): > 8.00; pIC50 (integrin α4β1; read-out: Jurkat (α4β1)/VCAM-1 IC50; Jurkat cells, VCAM coated plate): < 6.30"
"CC#Cc1cc(-c2c(C)cccc2C)c(F)c(C(CC(=O)O)NC(=O)C(CC(C)C)n2cc(CC3CN(C(C)C)C3)c(C(F)(F)F)cc2=O)c1F (single isomer, unassigned) [Trifluoroacetate salt of compound 18-2]",> 8.00,< 6.30,258,
"CC#Cc1cc(-c2c(C)cccc2C)c(F)c(C(CC(=O)O)NC(=O)C(CC(C)C)n2cc(CC3CN(CC4CC4)C3)c(C(F)(F)F)cc2=O)c1F (single isomer, unassigned) [Trifluoroacetate salt of compound 19-2]",> 8.00,< 6.30,323,
"Cc1cccc(C)c1-c1c(F)c(C(CC(=O)O)NC(=O)C(CC(C)C)n2cc(CCN(C)C)c(C(F)(F)F)cc2=O)c(F)c2c1CCC2 (single isomer, unassigned) [Trifluoroacetate salt of compound 20-2]",> 8.00,< 6.30,648,
"COc1cc(C)c(-c2c(F)c(C(CC(=O)O)NC(=O)C(CC(C)C)n3cc(CCN(C)C)c(C(F)(F)F)cc3=O)c(F)c3c2CCC3)c(C)c1 (single isomer, unassigned) [Trifluoroacetate salt of compound 21-2]",,,1586,
"CC#Cc1cc(-c2c(C)cccc2C)c(F)c(C(CC(=O)O)NC(=O)C(CC(C)C)n2cc(CC3CCN(C(C)C)CC3)c(C(F)(F)F)cc2=O)c1F (single isomer, unassigned) [Trifluoroacetate salt of compound 23-2]",> 8.00,< 6.30,310,
"CC#Cc1cc(-c2c(C)cccc2C)c(F)c(C(CC(=O)O)NC(=O)C(CC(C)C)n2cc(CCC3CCN(C)C3)c(C(F)(F)F)cc2=O)c1F (single isomer, unassigned) [Trifluoroacetate salt of compound 27-2]",> 8.00,< 7.00,133,
"Cc1cc(F)cc(C)c1-c1c(F)c(C(CC(=O)O)NC(=O)[C@H](CC(C)C)n2cc(CCC3CCCN3C)c(C(F)(F)F)cc2=O)c(F)c2c1CCC2 (single isomer, unassigned) [Trifluoroacetate salt of compound 28-2]",> 8.00,,130,
COc1cc(C)c(-c2c(F)c(C(CC(=O)O)NC(=O)C(CC(C)C)n3cc(CCN(C)C)c(C(F)(F)F)cc3=O)c(F)c3c2CCC3)c(C)c1 (stereo not shown) [Compound 21-A],,,119,
CC#Cc1cc(-c2c(C)cccc2C)c(F)c(C(CC(=O)O)NC(=O)[C@@H](CC(C)C)n2cc(CCN(CC)CC)c(C(F)(F)F)cc2=O)c1F (stereo partly shown) [Trifluoroacetate salt of compound 12-2],,< 7.00,354,pIC50 (integrin α4β7; [4]): > 9.30
Cc1cc(F)cc(C)c1-c1cc(C(CC(=O)O)NC(=O)[C@H](CC(C)C)n2cc(CC3CN(CC4CC4)C3)c(C(F)(F)F)cc2=O)cc2c1CCC2 (stereo partly shown) [Trifluoroacetate salt of compound 15-2],,< 7.00,272,pIC50 (integrin α4β7; [4]): > 9.00
Cc1cc(F)cc(C)c1-c1cc(C(CC(=O)O)NC(=O)C(CC(C)C)n2cc(CC3CCN(C(C)C)CC3)c(C(F)(F)F)cc2=O)cc2c1CCC2 (stereo not shown) [Trifluoroacetate salt of compound 22-2],,,307,
Cc1cc(F)cc(C)c1-c1c(F)c(C(CC(=O)O)NC(=O)C(CC(C)C)n2cc(CCC3CCN(C)C3)c(C(F)(F)F)cc2=O)c(F)c2c1CCC2 (stereo not shown) [Trifluoroacetate salt of compound 26-2],,,177,
Cc1ccc(F)c(C)c1-c1c(F)c(C(CC(=O)O)NC(=O)[C@H](CC(C)C)n2cc(CCN(C)C)c(C(F)(F)F)cc2=O)c(F)c2c1CCC2 (stereo partly shown) [Trifluoroacetate salt of compound 48-2],,,,pIC50 (integrin α4β7; [4]): > 9.00

# The next lines start with results.
pIC50 (integrin α4β7; [1]),pIC50 (integrin α4β1; [3]),SMILES,α4β1/α4β7 (integrin α4β1; [2]),other results
> 8.00,,"Cc1cc(F)cc(C)c1-c1cc(C(CC(=O)O)NC(=O)C(CC(C)C)n2cc(CCN(C)CC3CC3(F)F)c(C(F)(F)F)cc2=O)cc2c1CCC2 (single isomer, unassigned) [Compound 1-2]",>50,
> 8.00,,"C#CC1CN(CCc2cn(C(CC(C)C)C(=O)NC(CC(=O)O)c3cc4c(c(-c5c(C)cc(F)cc5C)c3)CCC4)c(=O)cc2C(F)(F)F)C1 (single isomer, unassigned) [Compound 3-2]",,
> 8.00,,"CC#Cc1cc(-c2c(C)cccc2C)c(F)c(C(CC(=O)O)NC(=O)[C@H](CC(C)C)n2cc(CCN3CCC4(CC4)C3)c(C(F)(F)F)cc2=O)c1F (single isomer, unassigned) [Compound 6-2]",,
> 8.00,,"Cc1cc(F)cc(C)c1-c1c(F)c(C(CC(=O)O)NC(=O)[C@H](CC(C)C)n2cc(CC3CCN(C4CC4)CC3)c(C(F)(F)F)cc2=O)c(F)c2c1CCC2 (single isomer, unassigned) [Compound 24-2]",,
> 8.00,,"COc1ccc(C)c(-c2c(F)c(C(CC(=O)O)NC(=O)[C@H](CC(C)C)n3cc(CCN(C)C)c(C(F)(F)F)cc3=O)c(F)c3c2CCC3)c1C (single isomer, unassigned) [Compound 50-2]",,
